According to patent US8952024B2, “Herbicidal pyrimidone derivatives” (E I du Pont de Nemours and Company, priority 2009, dated 2015):

Legend:
Type in all cases: in vivo
[1] = system: pigweed (Amaranthus retroflexus); experiment: Test A pre-/postemergence plant response; settings: for Pigweed plant response rating: visual injury, 0 to 100 scale (0 no effect, 100 complete control), approx. ten days
Summary of the method: (§1)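 Injury scores (0, no effect; 100, complete control) come from visual comparison with untreated controls roughly ten days post-treatment. Test chemicals in a surfactant-containing non-phytotoxic solvent were applied as a directed soil spray preemergence and to one- to two-leaf seedlings postemergence.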

[2] = system: barnyardgrass (Echinochloa crus-galli); experiment: Test A pre-/postemergence plant response; settings: for Barnyardgrass plant response rating: visual injury, 0 to 100 scale (0 no effect, 100 complete control), approx. ten days
Summary of the method: as §1

[3] = system: wheat (Triticum aestivum); experiment: Test A pre-/postemergence plant response; settings: for Wheat plant response rating: visual injury, 0 to 100 scale (0 no effect, 100 complete control), approx. ten days
Summary of the method: as §1

[4] = system: morningglory (Ipomoea spp.); experiment: Test A pre-/postemergence plant response; settings: for Morningglory plant response rating: visual injury, 0 to 100 scale (0 no effect, 100 complete control), approx. ten days
Summary of the method: as §1

[5] = system: velvetleaf (Abutilon theophrasti); experiment: Test A pre-/postemergence plant response; settings: for Velvetleaf plant response rating: visual injury, 0 to 100 scale (0 no effect, 100 complete control), approx. ten days
Summary of the method: as §1

[6] = system: giant foxtail (Setaria faberii); experiment: Test A pre-/postemergence plant response; settings: for Foxtail, Giant plant response rating: visual injury, 0 to 100 scale (0 no effect, 100 complete control), approx. ten days
Summary of the method: as §1

[7] = system: corn (Zea mays); experiment: Test A pre-/postemergence plant response; settings: for Corn plant response rating: visual injury, 0 to 100 scale (0 no effect, 100 complete control), approx. ten days
Summary of the method: as §1

[8] = system: large crabgrass (Digitaria sanguinalis); experiment: Test A pre-/postemergence plant response; settings: for Crabgrass, Large plant response rating: visual injury, 0 to 100 scale (0 no effect, 100 complete control), approx. ten days
Summary of the method: as §1

[9] = system: ducksalad (Heteranthera limosa); experiment: Test B flooded paddy test; settings: for Plant response rating, Flood, Ducksalad: 250 g ai/ha, flooded paddy test, visual rating on 0 to 100 scale (0 no effect, 100 complete control) after 13 to 15 days; for Plant response rating, Ducksalad: Flood (flooded paddy test), 13 to 15 days; for Ducksalad plant response rating: Flood, 31 g ai/ha, scale 0 to 100 (0 no effect, 100 complete control)
Summary of the method: (§2)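 Post-flood paddy application: compounds are introduced into water 3 cm deep over the soil, reaching plants at the 2-leaf stage. The water level is maintained, and after 13–15 days under greenhouse conditions, response is judged by eye relative to controls, where 100 means complete control.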

[10] = system: rice (Oryza sativa); experiment: Test B flooded paddy test; settings: for Plant response rating, Flood, Rice: 250 g ai/ha, flooded paddy test, visual rating on 0 to 100 scale (0 no effect, 100 complete control) after 13 to 15 days; for Plant response rating, Rice: Flood (flooded paddy test), 13 to 15 days; for Rice plant response rating: Flood, 31 g ai/ha, scale 0 to 100 (0 no effect, 100 complete control)
Summary of the method: as §2

[11] = system: barnyardgrass (Echinochloa crus-galli); experiment: Test B flooded paddy test; settings: for Plant response rating, Flood, Barnyardgrass: 250 g ai/ha, flooded paddy test, visual rating on 0 to 100 scale (0 no effect, 100 complete control) after 13 to 15 days; for Plant response rating, Barnyardgrass: Flood (flooded paddy test), 13 to 15 days; for Barnyardgrass plant response rating: Flood, 31 g ai/ha, scale 0 to 100 (0 no effect, 100 complete control)
Summary of the method: as §2

[12] = system: umbrella sedge (Cyperus difformis); experiment: Test B flooded paddy test; settings: for Plant response rating, Flood, Sedge, Umbrella: 250 g ai/ha, flooded paddy test, visual rating on 0 to 100 scale (0 no effect, 100 complete control) after 13 to 15 days; for Plant response rating, Sedge, Umbrella: Flood (flooded paddy test), 13 to 15 days; for Sedge, Umbrella plant response rating: Flood, 31 g ai/ha, scale 0 to 100 (0 no effect, 100 complete control)
Summary of the method: as §2

[13] = Postemergence, 125 g ai/ha, 0 to 100 scale where 0 is no effect and 100 is complete control
[14] = Preemergence, 125 g ai/ha, 0 to 100 scale, 0 = no effect, 100 = complete control
[15] = Preemergence, 500 g ai/ha, 0 to 100 scale, 0 = no effect, 100 = complete control
[16] = 62 g ai/ha, scale of 0 to 100 where 0 is no effect and 100 is complete control
[17] = 125 g ai/ha, scale 0 to 100, 0 is no effect, 100 is complete control

O=C1CCCC(O)=C1C(=O)c1cnc(-c2ccccc2)n(C2CCCCCCC2)c1=O [Compound 215]
Plant response rating, Pigweed [1, 13]: 90 | Pigweed plant response rating ([1]; Postemergence, 500 g ai/ha): 100 | Plant response rating, Pigweed [1, 14]: 20 | Plant response rating, Pigweed [1, 15]: 90 | Plant response rating, Barnyardgrass [2, 13]: 90 | Barnyardgrass plant response rating ([2]; Postemergence, 500 g ai/ha): 100 | Plant response rating, Barnyardgrass [2, 14]: 0 | Plant response rating, Barnyardgrass [2, 15]: 20 | Plant response rating, Wheat [3, 13]: 0 | Wheat plant response rating ([3]; Postemergence, 500 g ai/ha): 0 | Plant response rating, Wheat [3, 14]: 0 | Plant response rating, Wheat [3, 15]: 0 | Plant response rating, Morningglory [4, 13]: 100 | Morningglory plant response rating ([4]; Postemergence, 500 g ai/ha): 100 | Plant response rating, Morningglory [4, 14]: 0 | Plant response rating, Morningglory [4, 15]: 70 | Plant response rating, Velvetleaf [5, 13]: 100 | Velvetleaf plant response rating ([5]; Postemergence, 500 g ai/ha): 100 | Plant response rating, Velvetleaf [5, 14]: 0 | Plant response rating, Velvetleaf [5, 15]: 70 | Plant response rating, Foxtail, Giant [6, 13]: 40 | Foxtail, Giant plant response rating ([6]; Postemergence, 500 g ai/ha): 80 | Plant response rating, Foxtail, Giant [6, 14]: 10 | Plant response rating, Foxtail, Giant [6, 15]: 30 | Plant response rating, Corn [7, 13]: 0 | Corn plant response rating ([7]; Postemergence, 500 g ai/ha): 30 | Plant response rating, Corn [7, 14]: 0 | Plant response rating, Corn [7, 15]: 0 | Plant response rating, Crabgrass, Large [8, 13]: 40 | Crabgrass, Large plant response rating ([8]; Postemergence, 500 g ai/ha): 70 | Plant response rating, Crabgrass, Large [8, 14]: 0 | Plant response rating, Crabgrass, Large [8, 15]: 60 | Plant response rating, Flood, Ducksalad [9]: 85 | Plant response rating, Ducksalad [9, 16]: 75 | Plant response rating, Ducksalad [9, 17]: 85 | Ducksalad plant response rating [9]: 70 | Plant response rating, Flood, Rice [10]: 15 | Plant response rating, Rice [10, 16]: 0 | Plant response rating, Rice [10, 17]: 0 | Rice plant response rating [10]: 0 | Plant response rating, Flood, Barnyardgrass [11]: 40 | Plant response rating, Barnyardgrass [11, 16]: 0 | Plant response rating, Barnyardgrass [11, 17]: 30 | Barnyardgrass plant response rating [11]: 0 | Plant response rating, Flood, Sedge, Umbrella [12]: 90 | Plant response rating, Sedge, Umbrella [12, 16]: 0 | Plant response rating, Sedge, Umbrella [12, 17]: 75 | Sedge, Umbrella plant response rating [12]: 0

CCCn1c(-c2cc(F)cc(F)c2)ncc(C(=O)C2=C(O)CC(C)(C)CC2=O)c1=O [Compound 224]
Plant response rating, Pigweed [1, 13]: 100 | Pigweed plant response rating ([1]; Postemergence, 500 g ai/ha): 100 | Plant response rating, Pigweed [1, 14]: 70 | Plant response rating, Pigweed [1, 15]: 100 | Plant response rating, Barnyardgrass [2, 13]: 90 | Barnyardgrass plant response rating ([2]; Postemergence, 500 g ai/ha): 90 | Plant response rating, Barnyardgrass [2, 14]: 0 | Plant response rating, Barnyardgrass [2, 15]: 90 | Plant response rating, Wheat [3, 13]: 0 | Wheat plant response rating ([3]; Postemergence, 500 g ai/ha): 60 | Plant response rating, Wheat [3, 14]: 0 | Plant response rating, Wheat [3, 15]: 30 | Plant response rating, Morningglory [4, 13]: 100 | Morningglory plant response rating ([4]; Postemergence, 500 g ai/ha): 100 | Plant response rating, Morningglory [4, 15]: 30 | Plant response rating, Velvetleaf [5, 13]: 100 | Velvetleaf plant response rating ([5]; Postemergence, 500 g ai/ha): 100 | Plant response rating, Velvetleaf [5, 14]: 50 | Plant response rating, Velvetleaf [5, 15]: 80 | Plant response rating, Foxtail, Giant [6, 13]: 70 | Foxtail, Giant plant response rating ([6]; Postemergence, 500 g ai/ha): 100 | Plant response rating, Foxtail, Giant [6, 14]: 20 | Plant response rating, Foxtail, Giant [6, 15]: 70 | Plant response rating, Corn [7, 13]: 10 | Corn plant response rating ([7]; Postemergence, 500 g ai/ha): 50 | Plant response rating, Corn [7, 14]: 20 | Plant response rating, Corn [7, 15]: 20 | Plant response rating, Crabgrass, Large [8, 13]: 70 | Crabgrass, Large plant response rating ([8]; Postemergence, 500 g ai/ha): 100 | Plant response rating, Crabgrass, Large [8, 14]: 70 | Plant response rating, Crabgrass, Large [8, 15]: 100 | Plant response rating, Flood, Ducksalad [9]: 75 | Plant response rating, Ducksalad [9, 16]: 0 | Plant response rating, Ducksalad [9, 17]: 0 | Ducksalad plant response rating [9]: 0 | Plant response rating, Flood, Rice [10]: 60 | Plant response rating, Rice [10, 16]: 0 | Plant response rating, Rice [10, 17]: 0 | Rice plant response rating [10]: 0 | Plant response rating, Flood, Barnyardgrass [11]: 30 | Plant response rating, Barnyardgrass [11, 16]: 0 | Plant response rating, Barnyardgrass [11, 17]: 0 | Barnyardgrass plant response rating [11]: 0 | Plant response rating, Flood, Sedge, Umbrella [12]: 75 | Plant response rating, Sedge, Umbrella [12, 16]: 0 | Plant response rating, Sedge, Umbrella [12, 17]: 0 | Sedge, Umbrella plant response rating [12]: 0
